In ChEMBL document CHEMBL1125020 (J Med Chem, 1990):

Tests used:
[1] = Inhibition of Adenylate Cyclase in Rat adipocytes; assay type: cell-based
[2] = target: T1, Adenosine receptor A1 (Rattus norvegicus, UniProt P25099)
T1 sequence (P25099 whole entry): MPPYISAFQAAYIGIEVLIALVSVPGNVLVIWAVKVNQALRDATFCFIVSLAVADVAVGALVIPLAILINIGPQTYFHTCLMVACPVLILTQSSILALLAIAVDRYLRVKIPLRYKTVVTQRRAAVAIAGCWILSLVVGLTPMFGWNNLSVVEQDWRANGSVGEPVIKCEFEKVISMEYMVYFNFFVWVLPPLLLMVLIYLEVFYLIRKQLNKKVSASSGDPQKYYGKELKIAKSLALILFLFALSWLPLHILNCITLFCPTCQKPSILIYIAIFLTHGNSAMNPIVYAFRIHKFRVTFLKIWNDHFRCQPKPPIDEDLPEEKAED

[3] = target: Adenosine A2 receptor (Rattus norvegicus, UniProt P29276+P30543)

Compound | IC50 [1] [nM] | Ki [2] [nM] | Ki [3] [nM]
Cn1c(=O)c2nc(C3CC3)[nH]c2n(C)c1=O | 42 |  | 
Cn1c(=O)c2nc(Cc3ccccc3)[nH]c2n(C)c1=O | 890 |  | 
OC[C@H]1O[C@@H](n2cnc3c(NC4CC4)ncnc32)[C@H](O)[C@@H]1O |  | 2.1 | 
CCCn1c(=O)c2nc([C@H](C)Cc3ccccc3)[nH]c2n(CCC)c1=O |  |  | 157
Cn1c(=O)c2nc(C3CCCCC3)[nH]c2n(C)c1=O | 2.5 |  | 4.7
CCCn1c(=O)c2nc(C(C)Cc3ccccc3)[nH]c2n(CCC)c1=O (stereo not given) |  |  | 644
CCCn1c(=O)c2nc([C@@H](C)Cc3ccccc3)[nH]c2n(CCC)c1=O |  |  | 848
OC[C@H]1O[C@@H](n2cnc3c(NC4CCCCC4)ncnc32)[C@H](O)[C@@H]1O | 27 |  | 
Cn1c(=O)c2nc(C3CCCC3)[nH]c2n(C)c1=O [8-CYCLOPENTYLTHEOPHYLLINE] | 0.47 | 0.46 | 
Cn1c(=O)c2nc(-c3ccccc3)[nH]c2n(C)c1=O [8-PHENYL THEOPHYLLINE] | 37 |  | 20.9
OC[C@H]1O[C@@H](n2cnc3c(NCc4ccccc4)ncnc32)[C@H](O)[C@@H]1O [N6-BENZYLADENOSINE] | 2200 |  | 350
OC[C@H]1O[C@@H](n2cnc3c(NC4CCCC4)ncnc32)[C@H](O)[C@@H]1O [N6-CYCLOPENTYLADENOSINE] | 19.2 |  | 1.1
OC[C@H]1O[C@@H](n2cnc3c(Nc4ccccc4)ncnc32)[C@H](O)[C@@H]1O [N6-PHENYLADENOSINE] | 190 |  | 110
Cn1c(=O)c2nc[nH]c2n(C)c1=O [THEOPHYLLINE] | 940 |  | 
